Where two headings read alike, the source gives them in different places.
What was measured:
[1] = tested on: Mitochondrial Citrate Exchange; assay: In vitro enzyme activity, liver homogenate: mitochondrial citrate exchange; type: biochemical, CF1 male mouse; settings: ± SD, N = 6
Experimental: (§1) In vitro enzymatic studies were undertaken using 10% homogenates of CF1 male mouse liver with […] of compound 3,4,5,6-dibenzohomopiperidine. In addition, in vivo enzymatic studies were performed, again using 10% liver homogenates (prepared in 0.25 M sucrose plus 0.001 M (ethylenedinitrilo)-tetraacetic acid, ph 7.25 from CF1 male mice obtained after administering 3,4,5,6-dibenzohomopiperidine for 16 days at a concentration ranging from 10 to 60 mg/kg/day, intraperitoneally.
(§2) The following enzyme activities were determined by following standard literature procedures: acetyl coenzyme synthetase; adenosine triphosphate dependent citrate lyase; mitochondrial citrate exchange; cholesterol/7 hydroxylase; 3-hydroxy-3-methyl-glutaryl coenzyme A reductase; acetyl coenzyme A carboxylase activity; fatty acid synthetase activity; sn-glycerol-3-phosphate acyl transferase activity; phosphatidate phosphohydrolase activity; cholesterol acyl transferase; and heparin activated hepatic lypoprotein lipase. Protein was determined for all enzyme assays by the Lowry et al. technique (J. Biol. Chem, 193, 265 (1951)).

serum triglycerides = assay: Testing of Normal Mice: serum triglycerides (BioDynamics kit), Example 7; type: in vivo, CF1 male mice; settings: Mus musculus, 384 h; 20 mg/kg/day ip, day 16, ± SD
Experimental: (§3) Suspensions of Compounds Nos. 1-9 were prepared wherein the compounds were suspended in an aqueous 1% carboxymethylcelluose solution, homogenized and administered to CF1 male mice, each weighing approximately 25 grams, intraperitoneally on a daily basis for 16 days. The dosage was, with the exception of one compound, 20 milligrams of the active compound per kilogram of mouse weight per day. On days 9 and 16 blood was obtained by tail vein bleeding. The blood serum was separated by centrifugation for three minutes. Serum cholesterol levels were determined by a modification of the Liebermann-Burchard reaction. Serum was also collected on day 16 and the triglycerides content was determined by a commercial kit, BioDynamics/bnc Single Vile Colorimetric Method 348201. Each compound was tested on a group of six mice.
(§4) In addition to the above-described treated mice, untreated control groups of six mice were similarly tested on days 9 and 14 or 16 to determine their serum cholesterol and triglycerides blood levels. Table 5 reports the percent control, based on the serum cholesterol and serum triglyceride levels of the treated mice compared to the untreated controls. Table 5 also includes the standard deviation indicating the level of confidence of these numbers.
(§5) Example 7 was repeated substituting clofibrate, a compound used in the prior art to lower serum cholesterol and serum triglyceride levels. The clofibrate was administered as a suspension in an aqueous 1% solution of carboxymethylcellulose. However, unlike the compounds of the present invention which were administered at a dosage of 20 mg/kg day, ip, this compound was administered at the elevated concentration of 150 mg/kg day, ip.

Acetyl CoA Carboxylase [2] = assay: In vivo enzyme activity, liver of treated mice: acetyl CoA carboxylase; parameters: species or system CF1 male mice; settings: 16 days, ± SD
Experimental: as §1, §2

LDL = assay: Lipoprotein fractions in Rats, Example 11: LDL; type: in vivo, Sprague Dawley male rats; settings: oral 20 mg/kg/day, fourteen days, ± SD
Experimental: A group of six Sprague Dawley male rats were treated with 20 mg/kg/day of 3,4,5,6-dibenzohomopiperidine. The treatment was applied orally. An equal number of Sprague Dawley male rats, having approximately the same weight, were utilized as an untreated control. At the end of fourteen days the control and treated rats were sacrificed. Blood was collected from the abdominal aorta and lipoprotein fractions were obtained by the method of Hatch and Lees [Adv. Lipid Rees., 6, 1 (1968)] and Havel et al. [J. Clin Invest., 34, 1345 (1955)]. Each of the fractions were analyzed for cholesterol, triglycerides, neutral lipids, phospholipids and protein levels.

Acetyl CoA Carboxylase [3] = molecular target: T1, Acetyl CoA Carboxylase (Mus musculus, UniProt Q5SWU9); assay: In vitro enzyme activity, liver homogenate: acetyl CoA carboxylase; type: biochemical, CF1 male mouse; settings: ± SD, N = 6, read-out: Percent Control, in vitro enzyme activity
T1 construct: 10% homogenates of CF1 male mouse liver; from tissue; host or cells: CF1 male mouse liver, 10% homogenate
Experimental: as §1, §2

[4] = tested on: Phosphatidate Phosphohyrolase; assay: In vitro enzyme activity, liver homogenate: phosphatidate phosphohydrolase; type: biochemical, CF1 male mouse; settings: ± SD, N = 6
Experimental: as §1, §2

[5] = tested on: ATP Dependent Citrate Lyase; assay: In vivo enzyme activity, liver of treated mice: ATP dependent citrate lyase; parameters: species or system CF1 male mice; settings: 16 days, ± SD
Experimental: as §1, §2

[6] = molecular target: T2, Acyl CoA Cholesterol Acyl (Mus musculus, UniProt O88908); assay: In vitro enzyme activity, liver homogenate: acyl CoA cholesterol acyl transferase; type: biochemical, CF1 male mouse; settings: ± SD, N = 6, read-out: Percent Control, in vitro enzyme activity
T2 construct: 10% homogenates of CF1 male mouse liver; from tissue; host or cells: CF1 male mouse liver, 10% homogenate
T2 sequence (O88908 1-525): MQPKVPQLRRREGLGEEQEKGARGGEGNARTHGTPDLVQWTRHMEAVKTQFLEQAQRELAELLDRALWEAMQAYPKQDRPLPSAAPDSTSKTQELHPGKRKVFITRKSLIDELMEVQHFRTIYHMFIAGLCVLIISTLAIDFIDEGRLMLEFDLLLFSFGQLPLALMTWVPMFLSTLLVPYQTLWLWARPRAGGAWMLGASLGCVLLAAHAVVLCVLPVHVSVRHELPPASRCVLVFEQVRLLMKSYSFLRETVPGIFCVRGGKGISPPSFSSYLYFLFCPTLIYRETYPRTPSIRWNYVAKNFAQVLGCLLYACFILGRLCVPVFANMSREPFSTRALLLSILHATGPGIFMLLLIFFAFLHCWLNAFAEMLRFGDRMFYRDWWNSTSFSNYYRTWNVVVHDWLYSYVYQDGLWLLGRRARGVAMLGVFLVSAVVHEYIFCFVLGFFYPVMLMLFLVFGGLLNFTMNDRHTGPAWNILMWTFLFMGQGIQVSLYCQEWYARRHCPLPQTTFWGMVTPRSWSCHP
Experimental: as §1, §2

serum cholesterol = assay: Testing of Normal Mice: serum cholesterol (modified Liebermann-Burchard), Example 7; type: in vivo, CF1 male mice; settings: Mus musculus, 20 mg/kg/day ip
Experimental: as §3, §4, §5

Fatty Acid Synthetase = assay: In vivo enzyme activity, liver of treated mice: fatty acid synthetase; parameters: species or system CF1 male mice; settings: 16 days, ± SD
Experimental: as §1, §2

c1ccc2c(c1)CNCc1ccccc1-2 [Compound 3, 3,4,5,6-dibenzohomopiperidine]
Percent Control, in vitro enzyme activity ([1]; 50 μM): 99 ± 6%
Percent Control, in vitro enzyme activity ([1]; 100 μM): 97 ± 5%
Percent Control, in vitro enzyme activity ([1]; 200 μM): 99 ± 7%
response vs control in vivo at 20 mg/kg (serum triglycerides): 49 ± 5%
Percent Control, in vivo enzyme activity (Acetyl CoA Carboxylase [2]; 10 mg/kg/day ip): 54 ± 6%
Percent Control, in vivo enzyme activity (Acetyl CoA Carboxylase [2]; 20 mg/kg/day ip): 57 ± 7%
Percent Control, in vivo enzyme activity (Acetyl CoA Carboxylase [2]; 40 mg/kg/day ip): 47 ± 5%
Percent Control, in vivo enzyme activity (Acetyl CoA Carboxylase [2]; 60 mg/kg/day ip): 60 ± 4%
Cholesterol, concentration as a function of control (LDL): 82 ± 8%
Neutral Lipids, concentration as a function of control (LDL): 107 ± 9%
Phospholipids, concentration as a function of control (LDL): 94 ± 10%
Protein, concentration as a function of control (LDL): 108 ± 9%
Triglycerides, concentration as a function of control (LDL): 73 ± 6%
remaining activity at 50 µM (Acetyl CoA Carboxylase [3]; 50 μM): 84 ± 6%
remaining activity at 100 µM (Acetyl CoA Carboxylase [3]; 100 μM): 100 ± 7%
remaining activity at 200 µM (Acetyl CoA Carboxylase [3]; 200 μM): 99 ± 5%
Percent Control, in vitro enzyme activity ([4]; 50 μM): 45 ± 4%
Percent Control, in vitro enzyme activity ([4]; 100 μM): 44 ± 8%
Percent Control, in vitro enzyme activity ([4]; 200 μM): 50 ± 6%
Percent Control, in vivo enzyme activity ([5]; 10 mg/kg/day ip): 73 ± 6%
Percent Control, in vivo enzyme activity ([5]; 20 mg/kg/day ip): 63 ± 4%
Percent Control, in vivo enzyme activity ([5]; 40 mg/kg/day ip): 62 ± 3%
Percent Control, in vivo enzyme activity ([5]; 60 mg/kg/day ip): 65 ± 5%
remaining activity at 50 µM ([6]; 50 μM): 60 ± 6%
remaining activity at 100 µM ([6]; 100 μM): 59 ± 5%
remaining activity at 200 µM ([6]; 200 μM): 3 ± 1%
response vs control in vivo at 20 mg/kg (serum cholesterol; 216 h, day 9, ± SD, read-out: Serum Cholesterol Control, % Day 9): 68 ± 4%
response vs control in vivo at 20 mg/kg (serum cholesterol; 384 h, day 16, ± SD, read-out: Serum Cholesterol Control, % Day 16): 48 ± 4%
Percent Control, in vivo enzyme activity (Fatty Acid Synthetase; 10 mg/kg/day ip): 100 ± 8%
Percent Control, in vivo enzyme activity (Fatty Acid Synthetase; 20 mg/kg/day ip): 114 ± 6%
Percent Control, in vivo enzyme activity (Fatty Acid Synthetase; 40 mg/kg/day ip): 106 ± 7%
Percent Control, in vivo enzyme activity (Fatty Acid Synthetase; 60 mg/kg/day ip): 110 ± 8%

Source: patent publication US4689326A, “Process for controlling hyperlipidemia” (Research Corporation, priority 1985, dated 1987)
